Target: Replicase polyprotein 1ab (Severe acute respiratory syndrome coronavirus 2) (UniProt P0DTD1)
Description: Functional biochemical assay to identify treatments for viral infectious disease that targets SARS-COV-2 nsp3 macrodomain, whereby the mechanism of action displaces an ADP-Ribose modified peptide from the binding site. Utilizing a time-resolved fluorescence method to measure binding by reading the emitted fluorescence intensity in two wavelengths.

COCc1nc(CNc2c(C#N)c(C)nn2C)cs1
inhibition (Concentration 50.0 uM, Number of replicates 2.0, Standard deviation 4.858 %): 0.8%

O=C1C[C@H](CNC(=O)c2ccc(NC(=O)Nc3ccccc3)cc2)CCN1
inhibition (Concentration 49.75 uM, Number of replicates 2.0, Standard deviation 1.043 %): 1.22%
inhibition (Concentration 99.5 uM, Number of replicates 2.0, Standard deviation 0.12 %): 4.01%

Cc1cnc(C(=O)N(CCC(=O)N2CCNCC2)Cc2cccc(Cl)c2)nc1
inhibition (Concentration 49.75 uM, Number of replicates 2.0, Standard deviation 2.063 %): -1.49%
inhibition (Concentration 99.5 uM, Number of replicates 2.0, Standard deviation 9.956 %): 6.47%

CN1CCC[C@H](NC(=O)c2cnn3ccc(C4CCN(C(=O)c5ccccc5)CC4)cc23)C1
inhibition (Concentration 49.75 uM, Number of replicates 2.0, Standard deviation 0.821 %): -6.99%
inhibition (Concentration 99.5 uM, Number of replicates 2.0, Standard deviation 3.447 %): -5.44%

FC(F)(F)Oc1ccccc1-c1ncnc2[nH]ccc12
inhibition (Concentration 50.0 uM, Number of replicates 2.0, Standard deviation 5.274 %): -3.37%
inhibition (Concentration 100.0 uM, Number of replicates 2.0, Standard deviation 3.913 %): 2.12%

c1cnc([C@@H]2CCN(c3ncnc4[nH]ccc34)C2)cn1
inhibition (Concentration 50.0 uM, Number of replicates 2.0, Standard deviation 2.663 %): -1.7%

Cn1c(C(=O)NCCn2cccc2)cc2c(=O)n3ccccc3nc21
inhibition (Concentration 50.0 uM, Number of replicates 2.0, Standard deviation 2.478 %): 2.26%

O=C(N[C@@H](C(=O)O)[C@@H](O)Cc1ccccc1)c1ncnc2[nH]ccc12
inhibition (Concentration 49.75 uM, Number of replicates 2.0, Standard deviation 1.324 %): 3.79%
inhibition (Concentration 99.5 uM, Number of replicates 2.0, Standard deviation 4.676 %): 12.3%

Cc1[nH]c2ncnc(NCc3ccco3)c2c1C
inhibition (Concentration 50.0 uM, Number of replicates 2.0, Standard deviation 0.505 %): 17%
inhibition (Concentration 100.0 uM, Number of replicates 2.0, Standard deviation 0.323 %): 37.5%

COCc1cc(CNc2nc3[nH]cnc3c(=O)[nH]2)on1
inhibition (Concentration 50.0 uM, Number of replicates 2.0, Standard deviation 1.926 %): 2.98%

CC(C)[C@@H]1C(=O)NCCN1c1ncnc2[nH]ccc12
inhibition (Concentration 49.75 uM, Number of replicates 2.0, Standard deviation 1.976 %): 61.4%
inhibition (Concentration 99.5 uM, Number of replicates 2.0, Standard deviation 0.754 %): 80.7%

Cn1cc(NC(=O)c2ccc(NC(=O)Nc3ccccc3)cc2)c(C#N)n1
inhibition (Concentration 49.75 uM, Number of replicates 2.0, Standard deviation 0.991 %): 2.49%
inhibition (Concentration 99.5 uM, Number of replicates 2.0, Standard deviation 1.521 %): -0.539%

COc1cc(CNc2cnc3[nH]ncc3c2)ccc1Cl
inhibition (Concentration 50.0 uM, Number of replicates 2.0, Standard deviation 4.023 %): -2.79%

O=C1NC[C@@H](C(=O)N(CCC(=O)N2CCNCC2)Cc2cccc(Cl)c2)O1
inhibition (Concentration 49.75 uM, Number of replicates 2.0, Standard deviation 2.173 %): 0.125%
inhibition (Concentration 99.5 uM, Number of replicates 2.0, Standard deviation 10.437 %): 5.24%

c1ccc2sc(CCNc3ncnc4nc[nH]c34)nc2c1
inhibition (Concentration 50.0 uM, Number of replicates 2.0, Standard deviation 2.493 %): -4.21%

C[C@@H](Cc1ccc(Cl)s1)Nc1ccc([C@@H](CC(=O)O)NC(=O)c2c[nH]c3ncncc23)cc1
inhibition (Concentration 49.75 uM, Number of replicates 2.0, Standard deviation 2.68 %): -1.54%
inhibition (Concentration 99.5 uM, Number of replicates 2.0, Standard deviation 2.267 %): 1.95%

Cc1ccc(NC(=O)c2cnn3ccc(C4CCN(C(=O)c5ccccc5)CC4)cc23)cc1C(=O)O
inhibition (Concentration 49.75 uM, Number of replicates 2.0, Standard deviation 0.305 %): -1.05%
inhibition (Concentration 99.5 uM, Number of replicates 2.0, Standard deviation 2.043 %): -0.624%

Cn1nc(NCc2cc3c(=O)[nH]ccc3o2)c2nccnc21
inhibition (Concentration 50.0 uM, Number of replicates 2.0, Standard deviation 1.985 %): -1.01%

Cc1ncc(NCc2cnc3c(c2)NC(=O)CO3)cc1Cl
inhibition (Concentration 50.0 uM, Number of replicates 2.0, Standard deviation 2.461 %): -0.368%

O=C1CC[C@H](COC(=O)c2ncnc3[nH]ccc23)CCN1
inhibition (Concentration 50.0 uM, Number of replicates 2.0, Standard deviation 3.465 %): -7.87%

O=C(Nc1nc2ccc(F)cc2[nH]1)c1cc(N2CCNC2=O)ccc1F
inhibition (Concentration 50.0 uM, Number of replicates 2.0, Standard deviation 3.412 %): -7.71%

Cc1[nH]cnc1C(=O)N1CCC(c2ccn3ncc(C(=O)N4CCCCC4)c3c2)CC1
inhibition (Concentration 49.75 uM, Number of replicates 2.0, Standard deviation 1.318 %): 16.4%
inhibition (Concentration 99.5 uM, Number of replicates 2.0, Standard deviation 4.675 %): 32%

CN(c1ncnc2[nH]ccc12)[C@H]1CCN(S(C)(=O)=O)C1
inhibition (Concentration 50.0 uM, Number of replicates 2.0, Standard deviation 5.861 %): -0.371%

O=C(CCN(Cc1cccc(Cl)c1)C(=O)[C@H]1CCOC1)N1CCNCC1
inhibition (Concentration 49.75 uM, Number of replicates 2.0, Standard deviation 12.724 %): 4.08%
inhibition (Concentration 99.5 uM, Number of replicates 2.0, Standard deviation 2.436 %): -3.96%

OC[C@H](Cc1ccccc1)Nc1ncnc2[nH]ccc12
inhibition (Concentration 50.0 uM, Number of replicates 2.0, Standard deviation 2.629 %): -1.29%
inhibition (Concentration 100.0 uM, Number of replicates 2.0, Standard deviation 0.62 %): 8.93%

O=C(CCN(Cc1cccc(Cl)c1)C(=O)c1ncccc1Cl)N1CCNCC1
inhibition (Concentration 49.75 uM, Number of replicates 2.0, Standard deviation 1.117 %): 2.75%
inhibition (Concentration 99.5 uM, Number of replicates 2.0, Standard deviation 8.572 %): 7.52%
